Converted amounts (≈) assume the structure as drawn.
Tests used:
[1] = test system: Tobacco mosaic virus; assay: Antiviral activity against 30 mins compound pre-treated TMV U1 infected on Nicotiana glutinosa leaves assessed as virus inactivation effect by measuring local lesion numbers after 3 to 4 days post virus inoculation at 50 ug/ml by half-leaf method; type: functional; details: U1, in Nicotiana glutinosa
[2] = test system: Tobacco mosaic virus; assay: Antiviral activity against TMV U1 infected on 20 mins compound treated fresh leaves from 5 to 6 growth stage Nicotiana glutinosa assessed as inhibition of virus growth at 50 ug/ml cultured at 25 degC for 72 hrs by half-leaf method; type: functional; details: U1, in Nicotiana glutinosa
[3] = test system: Tobacco mosaic virus; assay: Potency index, ratio of IC50 for ningnanmycin to IC50 for test compound against 30 mins compound pre-treated TMV U1 infected on Nicotiana glutinosa leaves assessed as virus inactivation effect by measuring local lesion numbers after 3 to 4 days post virus inoculation by half-leaf method relative to untreated control; type: functional
[4] = test system: HL-60; assay: Cytotoxicity against human HL60 cells incubated for 48 hrs by MTT assay; type: functional, cell-based; details: HL-60, 48 h
[5] = test system: Tobacco mosaic virus; assay: Antiviral activity against 30 mins compound pre-treated TMV U1 infected on Nicotiana glutinosa leaves assessed as virus inactivation effect by measuring local lesion numbers after 3 to 4 days post virus inoculation at 10 ug/ml by half-leaf method relative to untreated control; type: functional; details: U1, in Nicotiana glutinosa
[6] = test system: Tobacco mosaic virus; assay: Antiviral activity against TMV U1 infected on Nicotiana glutinosa leaves smeared with virus before compound treatment assessed as virus infection curative effect by measuring local lesion numbers after 3 to 4 days post virus inoculation at 200 ug/ml by half-leaf method; type: functional; details: U1, in Nicotiana glutinosa
[7] = test system: Tobacco mosaic virus; assay: Antiviral activity against 30 mins compound pre-treated TMV U1 infected on Nicotiana glutinosa leaves assessed as virus inactivation effect by measuring local lesion numbers after 3 to 4 days post virus inoculation at 5 ug/ml by half-leaf method relative to untreated control; type: functional; details: U1, in Nicotiana glutinosa
[8] = test system: SMMC-7721; assay: Cytotoxicity against human SMMC7721 cells incubated for 48 hrs by MTT assay; type: functional, cell-based; details: SMMC-7721, 48 h
[9] = test system: Tobacco mosaic virus; assay: Antiviral activity against 30 mins compound pre-treated TMV U1 infected on Nicotiana glutinosa leaves assessed as virus inactivation effect by measuring local lesion numbers after 3 to 4 days post virus inoculation by half-leaf method relative to untreated control; type: functional, organism-based
[10] = test system: MCF7; assay: Cytotoxicity against human MCF7 cells incubated for 48 hrs by MTT assay; type: functional, cell-based; details: MCF7, 48 h
[11] = test system: Tobacco mosaic virus; assay: Antiviral activity against 30 mins compound pre-treated TMV U1 infected on Nicotiana glutinosa leaves assessed as virus inactivation effect by measuring local lesion numbers after 3 to 4 days post virus inoculation at 20 ug/ml by half-leaf method relative to untreated control; type: functional; details: U1, in Nicotiana glutinosa
[12] = test system: SW480; assay: Cytotoxicity against human SW480 cells incubated for 48 hrs by MTT assay; type: functional, cell-based; details: SW480, 48 h
[13] = test system: Tobacco mosaic virus; assay: Antiviral activity against 30 mins compound pre-treated TMV U1 infected on Nicotiana glutinosa leaves assessed as virus inactivation effect by measuring local lesion numbers after 3 to 4 days post virus inoculation at 40 ug/ml by half-leaf method relative to untreated control; type: functional; details: U1, in Nicotiana glutinosa
[14] = test system: Tobacco mosaic virus; assay: Antiviral activity against 30 mins compound pre-treated TMV U1 infected on Nicotiana glutinosa leaves assessed as virus inactivation effect by measuring local lesion numbers after 3 to 4 days post virus inoculation at 30 ug/ml by half-leaf method relative to untreated control; type: functional; details: U1, in Nicotiana glutinosa
[15] = test system: Tobacco mosaic virus; assay: Antiviral activity against TMV U1 infected on compound smeared Nicotiana glutinosa leaves assessed as virus infection protective effect by measuring local lesion numbers after 3 to 4 days post virus inoculation at 200 ug/ml by half-leaf method; type: functional; details: U1, in Nicotiana glutinosa
[16] = test system: A549; assay: Cytotoxicity against human A549 cells incubated for 48 hrs by MTT assay; type: functional, cell-based; details: A549, 48 h
[17] = test system: Tobacco mosaic virus; assay: Antiviral activity against 30 mins compound pre-treated TMV U1 infected on Nicotiana glutinosa leaves assessed as virus inactivation effect by measuring local lesion numbers after 3 to 4 days post virus inoculation at 50 ug/ml by half-leaf method relative to untreated control; type: functional; details: U1, in Nicotiana glutinosa

In the case of `CC(=O)O[C@@H]1[C@@H]2[C@@]3(C)C=CC(=O)OC(C)(C)[C@@H]3CC(=O)[C@@]2(C)[C@@]23O[C@@H]2C[C@@H](c2ccoc2)[C@]3(C)[C@H]1OC(C)=O`, the inhibition at 50 µg/mL [1] is reported as 98.2%, the inhibition at 50 µg/mL [2] is reported as 98.9% and the “Ratio IC50” value [3] is reported as 2. The IC50 [4] was greater than 10 µM, the inhibition at 10 µg/mL [5] was 30.9% and the inhibition at 200 µg/mL [6] was 52.8%. It also gave an inhibition at 5 µg/mL [7] of 11.8%, an IC50 [8] greater than 10 µM and an IC50 [9] of 19.6 µg/mL (≈ 36.3 µM). For the same compound, the IC50 [10] was greater than 10 µM, the inhibition at 20 µg/mL [11] was 62.3% and the IC50 [12] was greater than 10 µM. It also gave an inhibition at 40 µg/mL [13] of 92.3%, an inhibition at 30 µg/mL [14] of 86.1% and an inhibition at 200 µg/mL [15] of 56.7%. The IC50 [16] was greater than 10 µM and the inhibition at 50 µg/mL [17] was 95.6%.

In the case of `C/C=C(\C)C(=O)O[C@H]1C[C@@H](OC(C)=O)[C@@]2(C)CO[C@H]3[C@@H](O)[C@@]4(C)C5=C(C)[C@H](c6ccoc6)C[C@H]5O[C@@H](OC)C[C@@H]4[C@]1(C)[C@@H]32`, the inhibition at 50 µg/mL [1] is reported as 88.9%, the inhibition at 50 µg/mL [2] is reported as 98.5% and the IC50 [4] is reported as greater than 10 µM. The inhibition at 10 µg/mL [5] was 16.4%, the inhibition at 200 µg/mL [6] was 44.9% and the inhibition at 5 µg/mL [7] was 6.3%. The IC50 [8] was greater than 10 µM, the IC50 [9] was 28.1 µg/mL (≈ 46.9 µM) and the IC50 [10] was greater than 10 µM. It also gave an inhibition at 20 µg/mL [11] of 30.7%, an IC50 [12] greater than 10 µM and an inhibition at 40 µg/mL [13] of 70.3%. For the same compound, the inhibition at 30 µg/mL [14] was 63.5%, the inhibition at 200 µg/mL [15] was 63.8% and the IC50 [16] was greater than 10 µM. For the same compound, the inhibition at 50 µg/mL [17] was 86.9%.

From ChEMBL document CHEMBL3580639, “Bioactive Limonoid Constituents of Munronia henryi” (J Nat Prod, 2015)
